# Experiments:
# Experiment in all cases: relative viability (nuclei count vs DMSO), 5 days (fraction); higher = more cells survive
# [1] = compound: C1CC1C(=O)NC2=NNC3=C2C=CC(=C3)C4=CC(=CC=C4)C(=O)NC5CC5 [XMD13-2] + C[C@@H](Oc1cc(-c2cnn(C3CCNCC3)c2)cnc1N)c1c(Cl)ccc(F)c1Cl [Crizotinib] (partner 1 µM)
# Procedure, shortened: (§1)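 Lung cancer cell lines were pin-tool dosed in 1536-well plates on the day after seeding, with either a lone drug or a fixed anchor-drug dose plus five library-drug doses (not always all listed) in √10 steps. Nuclei were counted on 4× images after 5 days. Relative viability is the ratio of treated-well to vehicle-well nuclei counts, with each value a median of duplicate plates.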
# [2] = compound: C1CC1C(=O)NC2=NNC3=C2C=CC(=C3)C4=CC(=CC=C4)C(=O)NC5CC5 [XMD13-2] + O=C(CCCCCCC(=O)Nc1ccccc1)NO [Vorinostat] (partner 1 µM)
# Procedure, shortened: as §1
# [3] = compound: Cc1ccc(C(=O)Nc2cccc(C(F)(F)F)c2)cc1Nc1cncc(C(N)=O)c1 [ALW-II-49-7] + C[C@@H](Oc1cc(-c2cnn(C3CCNCC3)c2)cnc1N)c1c(Cl)ccc(F)c1Cl [Crizotinib] (partner 1 µM)
# Procedure, shortened: as §1
# [4] = compound: Cc1nc(Nc2ncc(C(=O)Nc3c(C)cccc3Cl)s2)cc(N2CCN(CCO)CC2)n1 [Dasatinib] + C[C@@H](Oc1cc(-c2cnn(C3CCNCC3)c2)cnc1N)c1c(Cl)ccc(F)c1Cl [Crizotinib] (partner 1 µM)
# Procedure, shortened: as §1
Cell Line,relative viability ([1]; first compound 0.05 µM),relative viability ([1]; first compound 0.1581 µM),relative viability ([1]; first compound 0.5 µM),relative viability ([1]; first compound 1.581 µM),relative viability ([1]; first compound 5 µM),relative viability ([2]; first compound 0.05 µM),relative viability ([2]; first compound 0.1581 µM),relative viability ([2]; first compound 0.5 µM),relative viability ([2]; first compound 1.581 µM),relative viability ([2]; first compound 5 µM),relative viability ([3]; first compound 0.08 µM),relative viability ([3]; first compound 0.253 µM),relative viability ([3]; first compound 0.8 µM),relative viability ([3]; first compound 2.53 µM),relative viability ([3]; first compound 8 µM),relative viability ([4]; first compound 0.005 µM),relative viability ([4]; first compound 0.01581 µM),relative viability ([4]; first compound 0.05 µM),relative viability ([4]; first compound 0.1581 µM),relative viability ([4]; first compound 0.5 µM)
HCC-827,0.974,0.923,0.906,0.807,0.682,0.838,0.937,0.956,0.765,1.06,0.898,0.913,0.886,0.941,0.906,0.924,0.82,0.807,0.385,0.145
NCI-H322M,0.913,0.937,1.09,0.814,1.01,0.927,0.984,0.914,,1.05,0.928,0.689,0.775,1.04,0.71,0.953,0.785,0.753,0.336,0.155
ChaGo-K-1,1.26,1.08,1.25,,1.14,0.789,0.635,0.837,0.7,0.716,1.13,1.12,1.08,0.972,1.04,1.14,1.02,1,0.862,0.734
BEN,0.919,0.913,0.852,0.989,0.917,0.625,0.543,0.585,0.574,0.487,0.722,0.866,0.81,,0.834,0.706,0.397,0.493,0.378,0.332
NCI-H2347,0.739,0.676,0.772,0.906,0.73,0.565,0.619,0.765,0.562,0.661,0.683,0.69,0.676,0.671,0.583,0.316,0.397,0.355,0.301,0.369
LOU-NH91,0.791,0.659,0.769,0.727,0.782,1.05,0.971,0.935,0.852,1.02,0.744,0.767,0.728,0.466,0.703,0.777,0.658,0.691,0.498,0.354
NCI-H2228,0.714,0.442,0.496,0.445,0.513,0.642,0.573,0.507,0.76,0.752,0.541,0.505,0.423,0.483,0.27,0.296,0.431,0.257,0.152,0.17
NCI-H2342,,,,,,0.741,0.736,0.831,0.687,0.773,,,,,,,,,,
HCC-366,0.616,0.527,0.688,0.529,0.65,0.439,0.291,0.386,0.379,0.399,0.777,0.592,0.382,0.682,0.609,0.374,0.18,0.158,0.0803,0.0691
NCI-H2405,0.932,0.84,0.971,0.846,0.837,1.08,0.934,1.04,,0.965,0.928,0.806,0.832,0.826,0.68,0.698,0.568,0.493,0.258,0.194
Calu-6,0.958,0.813,0.898,0.773,0.643,,,,,,0.736,0.737,0.718,0.904,0.554,0.701,0.618,0.519,0.341,0.344
201T,1,1.01,1,0.988,1.07,0.997,1.04,1.05,0.981,1.04,1.04,1.08,1.04,1.06,1.04,0.972,0.947,0.933,0.729,0.458
CAL-12T,0.76,0.816,0.572,0.538,0.874,0.76,0.652,0.792,0.71,1.06,0.537,0.625,0.686,0.62,0.385,0.86,0.627,0.457,0.128,0.0903
HCC-44,0.789,0.814,0.75,0.772,0.755,1.11,1.17,1.21,1.09,1.09,0.902,0.773,0.729,0.823,0.782,0.86,0.904,0.945,0.36,0.213
